Tests used:
[1] = tested on: HRV type 2; assay: Inhibition of viral cytopathic effect (CPE), visual scoring or neutral red, HRV type 2 in KB cells; type: cell-based, human rhinovirus; conditions: for Activity on Rhinovirus Type 2 EC50: HRV type 2 in KB cells, CPE inhibition; for Activity on Rhinovirus Type 2 SI: selectivity index = CC50 or MTC divided by EC50, HRV type 2, KB cells
[2] = tested on: HRV type 1A; assay: Inhibition of viral cytopathic effect (CPE), visual scoring or neutral red, HRV type 1A in MRC-5 cells; type: cell-based, human rhinovirus; conditions: for Activity on Rhinovirus Type 1A EC50: HRV type 1A in MRC-5 cells, CPE inhibition; for Activity on Rhinovirus Type 1A SI: selectivity index = CC50 or MTC divided by EC50, HRV type 1A, MRC-5 cells
[3] = tested on: human embryo lung (MRC-5) cells; assay: Cytotoxicity (CC50 or MTC) in uninfected MRC-5 cells; conditions: unit not given

Row | Compound | Activity on Rhinovirus Type 2 EC50 [1] [µg/mL] | Activity on Rhinovirus Type 2 SI [1] | Activity on Rhinovirus Type 1A EC50 [2] [µg/mL] | Activity on Rhinovirus Type 1A SI [2] | Activity on Rhinovirus Type 1A MTC [3]
1 | CCON=C(C)c1ccc(OCCC2CCN(c3ccc(Cl)nn3)CC2)cc1 [Compound 3] | 0.01 | >100 | 0.005 | 1841 | >10.0
2 | CCON=C(C)c1ccc(OCCC2CCN(c3ccc(C)nn3)CC2)cc1 [Compound 4] | 0.5 | >2 | 0.39 | 25.55 | 10.00
3 | CCON=C(C)c1cc(OC)c(OCCC2CCN(c3ccc(Cl)nn3)CC2)c(OC)c1 [Compound 6] | 0.1 | >500 | 0.06 | >167.09 | >10.00
4 | CON=C(C)c1ccc(OCCC2CCN(c3ccc(C)nn3)CC2)cc1 [Compound 9] | 0.08 | >13 | <0.0032 | >312 | >1
5 | CCC(=NOC)c1ccc(OCCC2CCN(c3ccc(Cl)nn3)CC2)cc1 [Compound 10] | 0.4 | >3 | 0.0142 | >70.54 | >1
6 | CC(C)ON=Cc1ccc(OCCC2CCN(c3ccc(Cl)nn3)CC2)cc1 [Compound 12] | 0.02 | 50 | 0.00355 | >273.7 | >1
7 | N#CCON=Cc1ccc(OCCC2CCN(c3ccc(Cl)nn3)CC2)cc1 [Compound 14] | 0.046 | 13 | <0.0032 | >312 | >1
8 | Clc1ccc(N2CCC(CCOc3ccc(C=NOCc4ccccc4)cc3)CC2)nn1 [Compound 15] | 0.9 | <1 | >1.0 | – | >1.0
9 | CON=Cc1cccc(OCCC2CCN(c3ccc(Cl)nn3)CC2)c1 [Compound 16] | <0.001 | >1000 | <0.0032 | >312 | >1
10 | CON=Cc1ccc(OC)c(OCCC2CCN(c3ccc(Cl)nn3)CC2)c1 [Compound 17] | >1 | – | 0.00612 | >163.2 | >1
11 | CON=C(C)c1ccc(OCCC2CCN(c3ccc(Cl)nn3)CC2)c(OC)c1 [Compound 19] | 0.019 | >53 | <0.0032 | >312 | >1
12 | CCOCCOCCON=Cc1ccc(OCCC2CCN(c3ccc(Cl)nn3)CC2)cc1 [Compound 20] | 3 | 1 | 3.28 | >15.24 | >50.00
13 | CON=Cc1ccc(OCCCC2CCN(c3ccc(Cl)nn3)CC2)cc1 [Compound 89] | – | – | 0.005 | >174 | >1
14 | CON=Cc1cccc(OCCCC2CCN(c3ccc(Cl)nn3)CC2)c1 [Compound 91] | – | – | 0.02 | >46 | >1
15 | CCON=Cc1cccc(OCCCC2CCN(c3ccc(Cl)nn3)CC2)c1 [Compound 92] | – | – | 0.20 | >5 | >1
16 | CON=Cc1ccc(OCCCC2CCN(c3ccc(C)nn3)CC2)cc1 [Compound 94] | – | – | 0.024 | >41 | >1
17 | CCON=Cc1ccc(OCCCC2CCN(c3ccc(C)nn3)CC2)cc1 [Compound 95] | – | – | 0.30 | >3 | >1
18 | CCON=Cc1cccc(OCCCC2CCN(c3ccc(C)nn3)CC2)c1 [Compound 98] | – | – | 0.255 | >3 | >1
19 | C=CCON=Cc1cccc(OCCCC2CCN(c3ccc(C)nn3)CC2)c1 [Compound 99] | – | – | 0.205 | >4 | >1
20 | CON=Cc1ccc(OCCCC2CCN(c3cccnn3)CC2)cc1 [Compound 102] | – | – | 0.059 | >17 | >1
21 | CCON=Cc1ccc(OCCCC2CCN(c3cccnn3)CC2)cc1 [Compound 103] | – | – | 0.266 | >3 | >1

Row | Compound | Activity on Rhinovirus Type 2 EC50 [1] [µg/mL] | Activity on Rhinovirus Type 2 SI [1] | Activity on Rhinovirus Type 1A EC50 [2] [µg/mL] | Activity on Rhinovirus Type 1A SI [2] | Activity on Rhinovirus Type 1A MTC [3]
22 | CON=Cc1cccc(OCCCC2CCN(c3cccnn3)CC2)c1 [Compound 105] | – | – | 0.126 | >8 | >1
23 | C=CCON=Cc1cccc(OCCCC2CCN(c3cccnn3)CC2)c1 [Compound 107] | – | – | 0.062 | >16 | >1
24 | CON=C(C)c1cc(C)c(OCCCc2cc(C)no2)c(C)c1 [Compound 109] | – | – | 0.053 | >18.8 | >1
25 | C#CCON=Cc1cc(C)c(OCCCc2cc(C)no2)c(C)c1 [Compound 119] | – | – | 0.046 | >21.4 | >1
26 | CCON=Cc1cc(C)c(OCCCCCCc2cc(C)no2)c(C)c1 [Compound 120] | – | – | 0.04 | >20 | >1
27 | CCON=Cc1cc(C)c(OCCCCCCCc2cc(C)no2)c(C)c1 [Compound 121] | – | – | 0.05 | >16 | >1
28 | CCON=Cc1cc(C)c(OCCCCCc2cc(C)no2)c(C)c1 [Compound 122] | – | – | 0.181 | >5 | >1
29 | CCON=Cc1cc(C)c(OCCCCc2cc(C)no2)c(C)c1 [Compound 123] | – | – | 0.060 | >16 | >1
30 | Cc1cc(CCCOc2c(C)cc(C=NOCC(F)(F)F)cc2C)on1 [Compound 124] | – | – | 0.719 | >1 | >1
31 | CCON=Cc1ccc(OCCC2CCN(c3ccc(CO)nn3)CC2)cc1 [Compound 129] | – | – | 0.048 | >20 | >1
32 | CCCON=Cc1cccc(OCCN2CCN(c3ccc(C)nn3)CC2)c1 [Compound 136] | – | – | 0.598 | >1 | >1
33 | CCON=Cc1cc(C)c(OCCCc2cc(C3CC3)no2)c(C)c1 [Compound 137] | – | – | 0.054 | >18 | >1
34 | CCON=Cc1cc(C)c(OCCCCc2cc(CC)no2)c(C)c1 [Compound 138] | – | – | 0.07 | >15 | >1
35 | CCCc1cc(CCCCOc2c(C)cc(C=NOCC)cc2C)on1 [Compound 139] | – | – | 0.19 | >5 | >1
36 | CON=Cc1ccc(OCCC2CCCN(c3ccc(Cl)nn3)C2)cc1 (stereo not shown) [Compound 140] | – | – | 0.016 | >61 | >1
37 | C=CCON=Cc1ccc(OCCC2CCCN(c3ccc(Cl)nn3)C2)cc1 (stereo not shown) [Compound 141] | – | – | 0.166 | >6 | >1
38 | CCON=Cc1ccc(OCCC2CCCN(c3ccc(Cl)nn3)C2)cc1 (stereo not shown) [Compound 142] | – | – | 0.055 | >18 | >1
39 | Cc1ccc(N2CCC(CCOc3ccc(C=NOCCF)cc3)CC2)nn1 [Compound 143] | – | – | 0.020 | >50 | >1
40 | CCO/N=C/c1ccc(OCCCCCNc2ccc(Cl)nn2)cc1 [Compound 147] | – | – | 0.194 | >5 | >1
41 | CCO/N=C/c1ccc(OCCC2CCN(c3cnc4cc(Cl)ccc4n3)CC2)cc1 [Compound 210] | – | – | 3.96 | >2.5 | >10
42 | CCO/N=C/c1ccc(Oc2cnc3cc(Cl)ccc3n2)cc1 [Compound 211] | – | – | 0.07 | >151 | >10
